These results are taken from PMC5360176 (Journal of clinical psychopharmacology, 2016).

For data set [1] the following is noted: oxycodone 30 mg p.o.
For data set [2] the following is noted: human, in vivo.
For the next data set, the system named is CAII. The conditions noted are these: high affinity RBC isoform; cited from earlier work.
For data set [3] the following is noted: human, in vivo. This is another data set of the same source.
In another data set the test system is CAI. The following applies: low affinity RBC isoform; cited from earlier work.
Data set [4] is described as follows: clinical. The conditions noted are these: human, in vivo.
For data set [5] the following is noted: human, in vivo. This is another data set of the same source.
The nature of data set [6]: clinical. The conditions noted are these: human, in vivo. This is another data set of the same source.
The conditions of data set [7]: cited from earlier work.
A short description of data set [8]: clinical. The conditions noted are these: human, in vivo. The source holds these as a separate data set.
The mark [9] stands for this setting: noroxycodone in plasma after oxycodone + ACZ, Day 5.
Setting [10] is: noroxycodone in plasma after oxycodone alone, Day 1.
The mark [11] stands for this setting: noroxycodone in plasma after oxycodone alone, Day 8.
[12] abbreviates: therapeutic dose of ~400 mg ACZ/day.

Where “and” joins values, the source holds several entries; their conditions need not be identical. Equal entries are not always repeated. Where two headings read alike, the source gives them in different places.

As usually defined, the Tmax is the time at which the peak concentration occurs. Broadly, the Cmax is the maximum level reached in the sampled fluid or tissue. The half-life is the time in which the quantity being followed falls by half. Consider `COc1ccc2c3c1O[C@H]1C(=O)CC[C@@]4(O)[C@@H](C2)N(C)CC[C@]314` [Oxycodone], for which the “Opioid Agonist Checklist scores as rated by subjects and observers” value in data set [1] was “increased scores on an Opioid Agonist Checklist”. The Pupil diameter result in data set [1] is reported as “sustained pupil miosis”. Besides, the “Ratings on a visual analog scale of drug liking” value in [1] is recorded as “increased ratings on a visual analog scale of drug liking”. For the same compound, the Tmax runs as follows: (human, in vivo, 30 mg) 1 h; (oxycodone alone, Day 8, plasma) 1.0 h. The Cmax reads like this: (human, in vivo, 30 mg, Cmax, oxycodone alone, Day 1, plasma) 61.6 ng/mL; (human, in vivo, 30 mg, Cmax, oxycodone alone, Day 8, plasma) 68.5 ng/mL; (human, in vivo, Cmax, oxycodone + ACZ, Day 5, plasma) 71.4 ng/mL. Besides, the half-life is, setting by setting: (human, in vivo, 30 mg, α-Half-life, oxycodone alone, Day 8, plasma) 0.14 ± 0.06 h; (human, in vivo, 30 mg, β-Half-life, oxycodone alone, Day 1, plasma) 3.9 h; (human, in vivo, 30 mg, β-Half-life, oxycodone alone, Day 8, plasma) 4.1 h; (human, in vivo, α-Half-life, oxycodone + ACZ 15 mg, Day 5, plasma) 0.2 h; (human, in vivo, β-Half-life, oxycodone + ACZ, Day 5, plasma) 4.1 h. Besides, the “Area under Curve” value is, setting by setting: (oxycodone + ACZ, Day 5, plasma) 341.3 ng·h/mL; (oxycodone alone, Day 1, plasma) 281.1 ^♦ h*ng/ml; (oxycodone alone, Day 8, plasma) 318.6 ng·h/mL. Besides, the α-Half-life (oxycodone alone, Day 8, plasma) is reported as 0.1 ^♦ h. In addition, where the note is “p<0.05, not different from Day 8”, the “Difference in oxycodone AUC (exposure), Day 5 with ACZ vs Day 1 alone” value is 20% and 20 ± 11%.
Consider `COc1ccc2c3c1O[C@H]1C(=O)CC[C@@]4(O)[C@@H](C2)NCC[C@]314` [Noroxycodone], for which, under setting [9], the “Area under Curve” value stood at 218 ng·h/mL, the Cmax is 30 ng/mL, the Tmax is on record as 0.9 h and the half-life is 5.0 h. Also, under setting [10], the Cmax came to 34.9 ng/mL, the Tmax is on record as 0.9 h and the half-life was 4.3 h. Besides, under setting [11], the “Area under Curve” value came out at 213 ng·h/mL, the highest concentration (Cmax) is 30.2 ng/mL, the Tmax amounted to 0.9 h and the half-life is recorded as 4.7 h. In addition, the “Area under Curve” value (noroxycodone metabolite in plasma after oxycodone alone, Day 1, one-compartment) was 224 ng·h/mL. In addition, the “Effect of ACZ on noroxycodone PK parameters” value (presence or absence of ACZ) is reported as “no differences in any of the PK parameters”.
Turning to `CC(=O)Nc1nnc(S(N)(=O)=O)s1` [ACZ, Acetazolamide], the “Blood Area under Curve” value in data set [2] is given as 52130 ng/ml*h. For the same compound, the “RBCs (minus residuum) Area under Curve” value in [2] stood at 49555 ng/mlblood*h. Besides, the “RBCs (total) Area under Curve” value in data set [2] worked out at 133107 ng/mlblood*h. In addition, the “Maximum ACZ binding capacity” value in the data set with CAII was 17 µM. The Cmax in data set [3] was 1285 ng/mL; in the data set “clinical [4]” (Cmax), 1310 ng/mL; in “clinical [4]” (Plasma Cmax) it was 660 ng/mL; in “clinical [8]” (Blood Cmax), 776 ng/mL; in “clinical [8]” (RBCs (minus residuum) Cmax) it was 636 ng/mL; in “clinical [8]” (RBCs (total) Cmax) it was 1790 ng/mL. The compound further displayed a Cmax in the data set “clinical [8]” (RBCtotal Cmax) of 17 ± 1 µM. In [3], the “Plasma Area under Curve” value is 5568 ng/mlblood*h. Also, the “Time of plasma maximum concentration (Cmax) after administration” value in data set [3] is reported as at most 1 h. Further, the Tmax came to 0.5 h in [3]; 1 h in the data set “clinical [4]” (Plasma Tmax); 1 h in the data set “clinical [4]” (Tmax); 7.2 h in the data set “clinical [6]”; 4.8 h in “clinical [8]” (Blood Tmax); 7.5 h in the data set “clinical [8]” (RBCs (minus residuum) Tmax). Besides, the Max binding capacity in the data set with CAI is on record as 155 µM. Moreover, the “Urinary excretion rate Cmax” value in data set [5] came out at 669 µg/h. The “Slowest individual urinary elimination rate (low outlier)” value in data set [5] (48 h) worked out at 87 µg/h. Moreover, in [5] (96 h), the “Fastest individual urinary elimination rate (high outlier)” value is 33 µg/h. In data set [7] (therapeutic (~400 mg / day) doses), the “RBC concentration with which side effects correlate” value is “exceed 90 µM”. The “Mean RBC concentration” value in data set [7] (setting [12]) is 121 ± 46 µM. Also, the Mean plasma concentration in data set [7] (setting [12]) was 51 ± 40 µM.
